From patent EP0280167A2, “Use of lipophile anthracyclines for the secondary treatment of anthracycline-resistant tumors, composition containing a lipophile anthracycline and preparation thereof” (BEHRINGWERKE Aktiengesellschaft, priority 1987, dated 1988)
Read-outs that look alike come from different tables or passages of the source.

What was measured:
[1] = system: sensitive L1210 Leukämiezellen; assay: Adriamycin uptake in sensitive L1210 cells with and without a lipophilic anthracycline (HPLC/fluorescence); format: cell-based; settings: for Adriamycinaufnahme (in % der unbehandelten Kontrolle ohne Zusatz) L1210: 1 h, 37°C, sensitive L1210
Description: (§1) Zur Bestimmung der Adriamycinaufnahme wurden sensitive oder resistente Zellen (2 x 10⁵/ml) in dem Zellkulturmedium RPMI 1640 für 1h bei 37°C mit Adriamycin in Gegenwart und Abwesenheit eines lipophilen Anthracyclins inkubiert. Die Zellsuspension (5 ml) wurde danach zentrifugiert (1 min, 2000 g), das Zellpellet zweimal mit kalter phosphat-gepufferter Kochsalzlösung gewaschen und anschließend durch Zugabe von 100 µl ^RTriton X-100, 800 µl DNAse (Sigma, FRG) und 100 µl internem Standard (Daunomycin, 1 µg/ml) lysiert. Adriamycin und interner Standard wurden mit Hilfe von mit C18-Alkylresten derivatisiertem Kieselgel gefüllten Säulen (Bondelut C18, Analytichem) angereichert.
(§2) Nach Aktivierung dieser Säulen mit Methanol und Waschen mit doppelt destilliertem Wasser wurden die Proben auf die Säulen gegeben. Anschließend wurde mit doppelt destilliertem Wasser gewaschen und das gebundene Material mit 2 ml Chloroform/Methanol (2:1; v:v) eluiert. Nach dem Abdampfen des Lösungsmittelgemisches unter einem Stickstoffstrom wurden die Rückstände in jeweils 100 µl eines Gemisches aus 3 Teilen Acetonitril und 7 Teilen 20 mmol/l wässriger Phosphorsäure, pH 3 ("mobile Phase") gelöst. Die Auftrennung der Probenbestandteile erfolgte mit Hilfe der Hochdruckflüssigkeitschromatographie (20 µl Probe) über eine mit Nucleosil C18 (Partikelgrüße 5 µm) gefüllte Säule (12.5 x 0.46 cm).
(§3) Zur Detektion wurde ein Fluoreszenzdetektor bei einer Exitations- bzw. Emissionswellenlänge von 495 bzw. 590 nm verwendet. Die quantitative Analyse von Adriamycin erfolgte mit Hilfe eines Integrators durch Bestimmung der Peakflächen unter Berücksichtigung der wiedergefundenen Menge an internem Standard und Vergleich mit Proben, die bekannte Mengen an Adriamycin enthielten.

[2] = system: resistente L1210 Leukämiezellen; assay: Adriamycin uptake in adriamycin-resistant L1210 cells with and without a lipophilic anthracycline (HPLC/fluorescence); format: cell-based; settings: for Adriamycinaufnahme (in % der unbehandelten Kontrolle ohne Zusatz) resistente L1210: 1 h, 37°C, resistant L1210; for Adriamycin-Aufnahme in adriamycinresistente L1210-Leukämiezellen: result in words, no concentration given
Description: (§4) Die Züchtung von adriamycin-resistenten L1210 Zellen erfolgte durch regelmäßig wiederholte, einstündige Inkubation von sensitiven L1210 Zellen mit steigenden Konzentrationen an Adriamycin bis ein Resistenzgrad (IC₅₀ resistente L1210/IC₅₀ sensitive L1210) gegenüber Adriamycin von etwa 80 erreicht war.
as §1, §2, §3

[3] = system: nicht resistente L1210 Leukämiezellen; assay: Proliferation test: cytotoxicity of Adriamycin on non-resistant L1210 cells with a lipophilic anthracycline present; format: cell-based; settings: influence of the added lipophilic anthracycline; result in words
physchem = format: physicochemical; settings: for logD: octanol/tris buffer
Description: Bestimmung des Oktanol-Wasser-Verteilungskoeffizienten P
Zu 1 ml einer 2-10 µmol/l Lösung der Anthracycline in oktanol-gesättigtem Tris-Puffer, pH 7, wurde 1 ml puffer-gesättigtes Oktanol gegeben und für etwa 1 h bei Raumtemperatur geschüttelt. Die wässrige Phase wurde anschliessend entnommen und die Substanzkonzentration in einem Fluoreszenzphotometer durch Vergleich mit Proben bekannter Konzentration bestimmt. Die Konzentration in der organischen Phase wurde durch Subtraktion der in der wässrigen Phase gefundenen Konzentration von der gesamten eingesetzten Konzentration ermittelt. Der Verteilungskoeffizient wurde berechnet nach der Formel: [formula]

resistente L1210 Zellen = assay: Proliferation test: cytotoxicity on adriamycin-resistant L1210 cells; format: cell-based; settings: resistant line grown by repeated 1 h incubation with rising Adriamycin concentrations
From the text: as §4

[4] = pH 7, octanol / Tris buffer pH 7, room temperature, * means greater than, read-out: P (converted)
[5] = pH 7, statement in text, room temperature (20°C) in b7, read-out: Oktanol-Wasser Verteilungskoeffizient P (converted)

Structure (SMILES)	Adriamycinaufnahme (in % der unbehandelten Kontrolle ohne Zusatz) L1210 ([1]; anthracycline 1 µg/ml)	Adriamycinaufnahme (in % der unbehandelten Kontrolle ohne Zusatz) L1210 ([1]; anthracycline 10 µg/ml)	Adriamycinaufnahme (in % der unbehandelten Kontrolle ohne Zusatz) resistente L1210 ([2]; anthracycline 1 µg/ml)	Adriamycinaufnahme (in % der unbehandelten Kontrolle ohne Zusatz) resistente L1210 ([2]; anthracycline 10 µg/ml)	logD (physchem; [4])	logD (physchem; [5])	Adriamycin-Aufnahme in adriamycinresistente L1210-Leukämiezellen [2]	Oktanol-Wasser Verteilungskoeffizient P (physchem; room temperature (20°C) in b7)	further results
CCCCCCN(C)[C@H]1C[C@H](O[C@H]2C[C@](O)(CC)[C@H](O)c3c(O)c4c(c(O)c32)C(=O)c2c(O)cccc2C4=O)O[C@@H](C)[C@H]1O [3'-N-Hexyl-3'-N-methyl-7-O-alpha-L-Daunosaminyl-ß-rhodomycinon]	97%	97%	197%	197%					
CCCCCN(C)[C@H]1C[C@H](O[C@H]2C[C@](O)(CC)[C@H](O)c3c(O)c4c(c(O)c32)C(=O)c2c(O)cccc2C4=O)O[C@@H](C)[C@H]1O [3'-N-Pentyl-3'-N-methyl-7-O-alpha-L-Daunosaminyl-ß-rhodomycinon]	87%	95%	166%	209%					
CC[C@@]1(O)C[C@H](O[C@H]2C[C@H](N(C)C)[C@H](O[C@H]3C[C@H](O)[C@H](O[C@H]4CCC(=O)[C@H](C)O4)[C@H](C)O3)[C@H](C)O2)c2c(cc3c(c2O)C(=O)c2c(O)cccc2C3=O)[C@H]1C(=O)OC [ACM, Aclacinomycin]					2.28	~2.3	Erhöhung		Adriamycin-Aufnahme in sensitive L1210 Zellen ([1]; result in words, no concentration given): nicht durch Aclacinomycin beeinflußt; zytotoxische Wirkung von Adriamycin auf nicht resistente L1210 Leukämiezellen [3]: nur schwach im Sinne einer additiven Wirkung beeinflußt
COc1cccc2c1C(=O)c1c(O)c3c(c(O)c1C2=O)C[C@@](O)(C(C)=O)C[C@@H]3O[C@H]1C[C@H](N)[C@H](O)[C@H](C)O1 [Daunomycin]					0.653	< 1			
COc1cccc2c1C(=O)c1c(O)c3c(c(O)c1C2=O)C[C@@](O)(C(=O)CO)C[C@@H]3O[C@H]1C[C@H](N)[C@H](O)[C@H](C)O1 [Doxorubicin]						< 1			Resistenzgrad (IC₅₀ resistente L1210/IC₅₀ sensitive L1210) (resistente L1210 Zellen): ~80
COc1cccc2c1C(=O)c1c(O)c3c(c(O)c1C2=O)C[C@@](O)(C(=O)CO)C[C@@H]3O[C@H]1C[C@H](N)[C@@H](O)[C@H](C)O1 [Epirubicin]						< 1			
CC[C@@]1(O)C[C@H](O)c2c(O)c3c(c(O)c2[C@H]1C(=O)OC)C(=O)c1cccc(O)c1C3=O [epsilon-Rhodomycinon]					> 3				
CC[C@@]1(O)C[C@H](O)c2c(O)c3c(c(O)c2[C@H]1C(=O)OC)C(=O)c1c(O)ccc(O)c1C3=O [epsilon-iso-Rhodomycinon]	90%	87%	146%	144%			vergleichbare	> 100	
CC[C@@]1(O)CCc2c(O)c3c(c(O)c2[C@H]1O)C(=O)c1cccc(O)c1C3=O [gamma-Rhodomycinon]							vergleichbare	> 100	
CC[C@@]1(O)C[C@H](O)c2c(O)c3c(c(O)c2[C@H]1O)C(=O)c1cccc(O)c1C3=O [ß-Rhodomycinon]	96%	96%	116%	186%			vergleichbare	> 100	
